Laboratory results published in ChEMBL document CHEMBL1201862, “PubChem BioAssay data set” (2004).
Activity calls are given as the source filed them.

Key:
[1] = molecular target: Photoreceptor-specific nuclear receptor (Homo sapiens, UniProt Q9Y5X4); type: functional;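 note: potency for compounds that break the NR2E3 corepressor complex and count as activators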
[2] = molecular target: Peroxisome proliferator-activated receptor gamma/Nuclear receptor corepressor 2 (Homo sapiens, UniProt P37231+Q9Y618); type: functional
[3] = molecular target: Protein-tyrosine kinase 2-beta (Homo sapiens, UniProt Q14289);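 note: potency of inhibitors of PYK2 kinase phosphorylation of poly-GT substrate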
Protein-tyrosine kinase 2-beta, sequence (Q14289 whole entry): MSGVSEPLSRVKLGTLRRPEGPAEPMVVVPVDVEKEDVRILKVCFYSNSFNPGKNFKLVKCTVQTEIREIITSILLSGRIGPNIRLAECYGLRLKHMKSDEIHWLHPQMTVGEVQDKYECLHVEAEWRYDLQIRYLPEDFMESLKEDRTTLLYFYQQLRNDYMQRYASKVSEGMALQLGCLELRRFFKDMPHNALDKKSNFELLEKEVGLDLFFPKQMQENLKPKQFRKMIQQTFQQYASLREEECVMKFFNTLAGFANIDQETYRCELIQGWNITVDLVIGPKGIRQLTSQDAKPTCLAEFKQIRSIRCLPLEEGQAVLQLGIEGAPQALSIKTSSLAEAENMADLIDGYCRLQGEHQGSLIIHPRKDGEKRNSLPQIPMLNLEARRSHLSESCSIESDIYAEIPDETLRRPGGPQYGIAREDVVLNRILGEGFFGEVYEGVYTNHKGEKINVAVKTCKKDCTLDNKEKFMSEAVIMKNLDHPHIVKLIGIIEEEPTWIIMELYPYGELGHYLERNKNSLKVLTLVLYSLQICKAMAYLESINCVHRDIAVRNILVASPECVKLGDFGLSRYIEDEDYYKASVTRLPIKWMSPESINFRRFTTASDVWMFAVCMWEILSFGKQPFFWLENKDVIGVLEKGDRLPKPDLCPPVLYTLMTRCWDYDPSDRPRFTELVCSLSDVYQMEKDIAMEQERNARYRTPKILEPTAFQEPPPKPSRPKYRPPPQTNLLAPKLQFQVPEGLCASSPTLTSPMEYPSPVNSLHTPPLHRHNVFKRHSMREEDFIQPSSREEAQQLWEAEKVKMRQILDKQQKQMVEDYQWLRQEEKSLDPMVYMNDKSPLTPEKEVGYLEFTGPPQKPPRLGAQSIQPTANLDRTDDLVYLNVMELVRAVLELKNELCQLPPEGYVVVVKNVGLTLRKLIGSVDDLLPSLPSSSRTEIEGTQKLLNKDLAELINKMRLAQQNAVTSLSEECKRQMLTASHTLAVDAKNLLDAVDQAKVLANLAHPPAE

[4] = molecular target: Genome polyprotein (Hepatitis C virus, UniProt Q2Q167); test: disruption of hepatitis C core self-association – biochemical, TR-FRET, dose response (AID 2159); design: species or system Hepacivirus hominis;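 note: blocks dimerization of HCV core protein measured by TR-FRET between tagged core106 pairs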
Genome polyprotein, sequence (Q2Q167 whole entry): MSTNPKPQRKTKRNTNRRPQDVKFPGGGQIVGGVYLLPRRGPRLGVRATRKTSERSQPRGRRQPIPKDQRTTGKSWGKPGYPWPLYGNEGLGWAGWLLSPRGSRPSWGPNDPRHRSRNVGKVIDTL

[5] = molecular target: T1, Voltage-gated N-type calcium channel alpha-1B subunit/Amyloid beta A4 precursor protein-binding family A member 1 (Homo sapiens, UniProt Q00975+Q02410); type: protein assay
T1 sequence (Q00975 whole entry): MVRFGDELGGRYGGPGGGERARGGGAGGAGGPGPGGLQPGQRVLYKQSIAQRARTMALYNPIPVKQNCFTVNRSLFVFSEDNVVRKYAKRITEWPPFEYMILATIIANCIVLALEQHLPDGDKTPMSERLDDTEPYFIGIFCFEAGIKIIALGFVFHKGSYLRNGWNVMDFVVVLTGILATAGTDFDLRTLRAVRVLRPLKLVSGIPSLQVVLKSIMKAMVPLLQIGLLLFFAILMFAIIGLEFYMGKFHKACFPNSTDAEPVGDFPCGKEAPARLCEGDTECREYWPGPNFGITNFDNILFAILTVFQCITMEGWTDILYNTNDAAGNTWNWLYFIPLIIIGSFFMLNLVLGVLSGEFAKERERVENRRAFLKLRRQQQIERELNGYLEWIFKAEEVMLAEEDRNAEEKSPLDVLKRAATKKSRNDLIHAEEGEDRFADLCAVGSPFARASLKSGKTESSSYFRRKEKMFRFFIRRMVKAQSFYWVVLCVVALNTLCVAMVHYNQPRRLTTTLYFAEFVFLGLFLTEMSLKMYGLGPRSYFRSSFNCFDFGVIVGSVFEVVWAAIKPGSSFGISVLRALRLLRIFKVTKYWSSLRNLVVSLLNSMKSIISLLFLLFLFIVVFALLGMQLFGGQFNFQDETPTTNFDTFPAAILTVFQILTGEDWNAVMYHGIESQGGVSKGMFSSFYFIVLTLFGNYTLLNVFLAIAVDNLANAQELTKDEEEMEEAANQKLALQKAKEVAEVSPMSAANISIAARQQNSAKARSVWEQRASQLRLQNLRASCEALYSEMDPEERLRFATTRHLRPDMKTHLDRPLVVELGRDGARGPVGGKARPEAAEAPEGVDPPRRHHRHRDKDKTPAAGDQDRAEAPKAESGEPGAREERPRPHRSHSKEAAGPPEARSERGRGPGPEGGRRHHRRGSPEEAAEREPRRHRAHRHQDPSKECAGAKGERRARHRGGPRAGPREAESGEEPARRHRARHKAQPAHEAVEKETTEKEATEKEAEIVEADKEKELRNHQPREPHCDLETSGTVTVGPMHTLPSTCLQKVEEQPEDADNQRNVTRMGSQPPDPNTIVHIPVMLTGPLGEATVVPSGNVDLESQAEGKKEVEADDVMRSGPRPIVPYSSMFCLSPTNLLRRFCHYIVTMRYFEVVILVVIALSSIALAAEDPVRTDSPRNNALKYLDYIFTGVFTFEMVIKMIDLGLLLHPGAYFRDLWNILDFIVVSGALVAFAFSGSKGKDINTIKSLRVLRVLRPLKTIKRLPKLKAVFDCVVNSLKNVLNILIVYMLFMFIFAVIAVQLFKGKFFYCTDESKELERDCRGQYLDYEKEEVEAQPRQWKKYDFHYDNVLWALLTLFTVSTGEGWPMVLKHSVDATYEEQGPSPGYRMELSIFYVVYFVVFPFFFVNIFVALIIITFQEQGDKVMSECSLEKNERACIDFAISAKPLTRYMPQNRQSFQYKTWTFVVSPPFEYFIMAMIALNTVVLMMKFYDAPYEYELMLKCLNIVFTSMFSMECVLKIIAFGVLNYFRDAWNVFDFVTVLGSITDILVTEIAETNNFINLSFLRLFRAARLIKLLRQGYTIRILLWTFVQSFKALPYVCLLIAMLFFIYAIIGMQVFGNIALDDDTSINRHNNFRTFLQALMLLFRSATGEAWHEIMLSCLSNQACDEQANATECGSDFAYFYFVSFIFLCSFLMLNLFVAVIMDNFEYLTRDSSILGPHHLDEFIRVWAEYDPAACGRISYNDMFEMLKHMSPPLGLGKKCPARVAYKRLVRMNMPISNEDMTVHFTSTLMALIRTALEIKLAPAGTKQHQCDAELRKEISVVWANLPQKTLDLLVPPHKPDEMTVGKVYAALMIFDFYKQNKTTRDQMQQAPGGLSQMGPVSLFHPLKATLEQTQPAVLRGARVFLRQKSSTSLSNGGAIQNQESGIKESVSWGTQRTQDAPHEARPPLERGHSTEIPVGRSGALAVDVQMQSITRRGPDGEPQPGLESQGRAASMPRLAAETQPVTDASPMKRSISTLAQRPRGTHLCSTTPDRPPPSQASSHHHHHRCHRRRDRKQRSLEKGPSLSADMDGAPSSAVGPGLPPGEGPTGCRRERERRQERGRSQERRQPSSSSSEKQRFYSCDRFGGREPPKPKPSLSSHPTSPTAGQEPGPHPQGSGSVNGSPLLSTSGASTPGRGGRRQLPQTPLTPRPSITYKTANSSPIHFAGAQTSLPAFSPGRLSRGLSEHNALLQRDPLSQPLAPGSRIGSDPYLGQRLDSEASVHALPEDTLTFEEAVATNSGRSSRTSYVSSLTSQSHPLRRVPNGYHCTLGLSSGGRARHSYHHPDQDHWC
T1 sequence (Q02410 whole entry): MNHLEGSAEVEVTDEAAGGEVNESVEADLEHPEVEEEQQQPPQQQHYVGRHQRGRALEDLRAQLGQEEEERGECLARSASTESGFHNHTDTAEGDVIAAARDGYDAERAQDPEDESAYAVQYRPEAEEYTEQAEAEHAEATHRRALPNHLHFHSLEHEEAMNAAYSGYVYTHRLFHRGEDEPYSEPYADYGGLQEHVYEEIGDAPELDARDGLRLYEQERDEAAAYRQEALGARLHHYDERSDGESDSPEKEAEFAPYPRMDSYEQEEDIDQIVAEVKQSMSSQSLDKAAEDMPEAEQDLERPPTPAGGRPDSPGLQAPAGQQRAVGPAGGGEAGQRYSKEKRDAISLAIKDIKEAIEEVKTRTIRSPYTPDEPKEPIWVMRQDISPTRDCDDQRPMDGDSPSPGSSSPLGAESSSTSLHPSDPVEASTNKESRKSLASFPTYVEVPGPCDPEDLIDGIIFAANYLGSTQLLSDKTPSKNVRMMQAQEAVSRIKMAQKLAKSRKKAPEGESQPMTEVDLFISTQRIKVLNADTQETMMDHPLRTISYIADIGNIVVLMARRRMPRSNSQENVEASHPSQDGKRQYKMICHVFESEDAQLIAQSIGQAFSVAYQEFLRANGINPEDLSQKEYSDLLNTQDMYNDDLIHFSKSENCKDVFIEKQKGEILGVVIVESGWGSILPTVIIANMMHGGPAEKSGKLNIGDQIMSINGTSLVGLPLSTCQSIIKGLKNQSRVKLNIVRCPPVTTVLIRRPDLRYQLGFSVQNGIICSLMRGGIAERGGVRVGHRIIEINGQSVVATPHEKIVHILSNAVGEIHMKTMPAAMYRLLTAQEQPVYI

[6] = molecular target: T1, Voltage-gated N-type calcium channel alpha-1B subunit/Amyloid beta A4 precursor protein-binding family A member 1; type: protein assay; remark: listed apart in the source
[7] = molecular target: Serine/threonine-protein phosphatase (Homo sapiens, UniProt Q9BPW0); test: Counterscreen for inhibitors of PP1: fluorescence-based biochemical high throughput dose response assay to identify inhibitors of Protein Phosphatase 5 (PP5). [Related pubchem assays: 2034 (Summary (PP5 inhibitors)), 1987 (PP5 inhibitors in singlate), 2235 (PP1 inhibitors in singlate)]
[8] = molecular target: Serine/threonine-protein phosphatase PP1-alpha catalytic subunit (Homo sapiens, UniProt P62136); test: inhibition of protein phosphatase 1 activity – biochemical, fluorescence, dose response (AID 2403);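 note: phosphatase turnover of OMFP into fluorescent 3-O-methylfluorescein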
Serine/threonine-protein phosphatase PP1-alpha catalytic subunit, sequence (P62136 whole entry): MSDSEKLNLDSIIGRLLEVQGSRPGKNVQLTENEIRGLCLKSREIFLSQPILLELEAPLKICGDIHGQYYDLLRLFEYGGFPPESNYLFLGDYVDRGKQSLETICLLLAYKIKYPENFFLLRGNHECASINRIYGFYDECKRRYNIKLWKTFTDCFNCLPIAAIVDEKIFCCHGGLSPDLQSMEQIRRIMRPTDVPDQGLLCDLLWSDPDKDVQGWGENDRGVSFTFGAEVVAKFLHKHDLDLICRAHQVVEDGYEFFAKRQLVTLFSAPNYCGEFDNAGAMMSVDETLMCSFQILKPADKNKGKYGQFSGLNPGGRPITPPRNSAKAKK

[9] = Trypanosoma cruzi growth suppression in host cells – NIH3T3 host cells, beta-gal luminescence, confirmation (AID 2044); type: functional, cell-based;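 note: intracellular parasites grown in NIH/3T3 mouse fibroblasts as host cells; luminescent beta-galactosidase reporter signal from transgenic T. cruzi replicating inside host cells; inhibitors lower the luminescence signal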
[10] = NIH3T3 cell viability loss – ATP luminescence, mouse fibroblasts, counter-screen, dose response (AID 2010); type: functional, cell-based;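 note: cells exposed to compound for about 90 hours before reading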
[11] = tested on: Vero; test: viability of Vero cells under compound – cytotoxicity control for flavivirus capping enzyme inhibitors (AID 588742); type: functional; settings: Chlorocebus sabaeus
[12] = molecular target: T2, DNA repair protein RAD52 homolog (Homo sapiens, UniProt P43351); type: functional, biochemical
T2 sequence (P43351 whole entry): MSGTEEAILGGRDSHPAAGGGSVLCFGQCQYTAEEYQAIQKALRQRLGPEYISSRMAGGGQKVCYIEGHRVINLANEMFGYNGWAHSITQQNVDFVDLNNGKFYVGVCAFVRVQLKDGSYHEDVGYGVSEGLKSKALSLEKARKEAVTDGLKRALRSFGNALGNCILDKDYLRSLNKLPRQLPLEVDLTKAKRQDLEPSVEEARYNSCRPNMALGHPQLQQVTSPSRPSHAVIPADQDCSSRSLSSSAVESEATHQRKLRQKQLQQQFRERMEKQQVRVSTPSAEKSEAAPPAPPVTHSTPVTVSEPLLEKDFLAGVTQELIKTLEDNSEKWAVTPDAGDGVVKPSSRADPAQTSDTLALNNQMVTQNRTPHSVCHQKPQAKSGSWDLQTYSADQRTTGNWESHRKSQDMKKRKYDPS

[13] = microbe, parasite or virus in culture; type: functional; settings: Mycobacterium tuberculosis
[14] = tested on: Streptococcus; test: GAS UMAA2166 growth inhibition – luminescence, BacTiterGlo, counter-screen for streptokinase expression inhibitor project, dose response (AID 1915); type: functional, organism-based;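 note: potency for reduction of bacterial viability or growth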
[15] = tested on: Streptococcus sp. 'group A'; test: Streptococcus pyogenes SK(-)GAS viability under kanamycin – luminescence, BacTiterGlo, confirmation, counter-screen for streptokinase expression inhibitor project, dose response (AID 1900); type: functional, organism-based
[16] = SNU-C1 cell viability reduction, dose response, CellTiter-Glo luminescence (AID 1117323); type: functional, cell-based
[17] = cytotoxicity toward HT-29 cells – cell-based, CellTiter-Glo luminescence, IC50, dose response (AID 1117330); type: functional
[18] = CellTiter-Glo luminescence survival assay, SW480 colon tumor line, concentration-response curve, half-maximal inhibitory concentration (AID 1117338); type: functional
[19] = molecular target: T3, Replicative DNA helicase DnaB (Mycobacterium tuberculosis, UniProt P9WMR3); test: DnaB intein splicing inhibitors, dose response, biochemical, cell-free fluorescence (AID 449749); type: functional
T3 sequence (P9WMR3 whole entry): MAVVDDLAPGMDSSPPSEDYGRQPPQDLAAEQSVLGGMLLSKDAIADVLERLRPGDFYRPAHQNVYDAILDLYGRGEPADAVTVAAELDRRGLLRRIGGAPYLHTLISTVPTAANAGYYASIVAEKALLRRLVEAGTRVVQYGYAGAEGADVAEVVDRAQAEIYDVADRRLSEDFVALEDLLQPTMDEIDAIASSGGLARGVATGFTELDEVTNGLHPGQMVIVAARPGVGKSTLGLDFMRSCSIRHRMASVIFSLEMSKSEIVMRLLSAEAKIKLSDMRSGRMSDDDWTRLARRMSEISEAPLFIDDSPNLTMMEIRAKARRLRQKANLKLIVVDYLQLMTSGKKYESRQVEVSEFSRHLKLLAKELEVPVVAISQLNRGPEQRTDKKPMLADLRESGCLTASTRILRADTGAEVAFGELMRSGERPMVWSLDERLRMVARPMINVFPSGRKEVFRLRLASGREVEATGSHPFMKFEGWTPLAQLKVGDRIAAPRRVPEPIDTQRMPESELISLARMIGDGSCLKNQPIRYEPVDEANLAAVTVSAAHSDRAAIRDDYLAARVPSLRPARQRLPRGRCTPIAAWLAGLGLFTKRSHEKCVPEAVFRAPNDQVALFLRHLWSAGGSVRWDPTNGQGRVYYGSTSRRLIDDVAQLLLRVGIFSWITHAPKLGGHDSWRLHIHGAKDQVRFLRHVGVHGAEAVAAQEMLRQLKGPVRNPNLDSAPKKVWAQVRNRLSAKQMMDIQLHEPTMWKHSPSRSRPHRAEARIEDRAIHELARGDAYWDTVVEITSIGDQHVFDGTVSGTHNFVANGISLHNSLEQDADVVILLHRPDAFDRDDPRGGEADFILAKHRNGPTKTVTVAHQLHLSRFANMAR

[20] = molecular target: Vasopressin V1a receptor (Homo sapiens, UniProt P37288); test: Counterscreen for Oxytocin Receptor (OXTR) agonists: Fluorescence-based cell-based high throughput dose response assay to identify agonists of the vasopressin 1 receptor (V1R). [Related pubchem assays: 2435 (Primary screen (OXTR agonists in singlicate)), 434991 (Counterscreen (V1R agonists in triplicate)), 2482 (Summary (OXTR agonists)) …; type: functional
[21] = cytotoxicity toward HCT116 cells – cell-based, CellTiter-Glo luminescence, IC50, dose response (AID 1117332); type: functional; settings: HCT-116
[22] = RKO cell viability reduction, dose response, CellTiter-Glo luminescence (AID 1117322); type: functional
[23] = glucagon-like peptide-1 release potency in STC-1, concentration-response, half-maximal inhibitory concentration in the STC-1 line (AID 1117345); type: functional, cell-based
[24] = cytotoxicity toward Colo320 cells – cell-based, CellTiter-Glo luminescence, IC50, dose response (AID 1117334); type: functional; settings: COLO 320
[25] = HCT116 cell viability decrease, GSK3B pretreatment – CellTiter-Glo, IC50, dose response (AID 1117339); type: functional; settings: HCT-116
[26] = tested on: INS1; test: INS-1E survival protection against cytokine death – cell-based, luminescence, retest, dose response (AID 449756); type: functional; settings: Rattus norvegicus;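 note: cell death triggered by IL-1 beta plus TNF-alpha plus IFN-gamma mixture; protective hits raise ATP signal compared with cytokine alone wells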
[27] = Reduced DLD-1 viability, concentration-response, CellTiter-Glo luminescence (AID 1117352); type: functional
[28] = molecular target: Heat shock protein HSP 90-alpha (Homo sapiens, UniProt P07900); type: functional, organism-based
[29] = Potency on glucagon-like peptide 1 release, dose-response in NCI-H716 cell line, half maximal inhibitory concentration (AID 1117344); type: functional, cell-based
[30] = molecular target: T4, Streptokinase A (Streptococcus pyogenes serotype M1, UniProt P10520); test: viability-normalized secreted streptokinase activity reduction – plasminogen activation absorbance, OD405, dose response (AID 1914); type: functional, Streptococcus pyogenes M1 GAS;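 note: secreted streptokinase activity via plasminogen activation per viability signal from cell pellet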
T4 sequence (P10520 whole entry): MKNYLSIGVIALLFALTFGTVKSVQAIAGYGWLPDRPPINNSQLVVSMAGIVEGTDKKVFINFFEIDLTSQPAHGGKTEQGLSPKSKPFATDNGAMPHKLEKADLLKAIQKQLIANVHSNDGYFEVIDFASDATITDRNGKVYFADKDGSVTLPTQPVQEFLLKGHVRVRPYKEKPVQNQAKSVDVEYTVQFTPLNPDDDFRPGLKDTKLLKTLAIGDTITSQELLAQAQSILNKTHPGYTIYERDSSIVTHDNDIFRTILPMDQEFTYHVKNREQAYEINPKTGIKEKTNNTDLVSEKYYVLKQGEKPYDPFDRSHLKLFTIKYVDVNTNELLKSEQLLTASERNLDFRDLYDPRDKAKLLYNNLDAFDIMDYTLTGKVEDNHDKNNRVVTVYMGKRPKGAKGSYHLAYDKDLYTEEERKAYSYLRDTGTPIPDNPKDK

[31] = molecular target: Oxytocin receptor (Homo sapiens, UniProt P30559); test: Fluorescence-based cell-based high throughput dose response assay for agonists of the Oxytocin Receptor (OXTR). [Related pubchem assays: 2435 (Primary screen (OXTR agonists in singlicate)), 434991 (Counterscreen (V1R agonists in triplicate)), 2482 (Summary (OXTR agonists)), 434963 (Confirmation screen (OXTR agonists in triplicate))]; type: functional
Oxytocin receptor, sequence (P30559 whole entry): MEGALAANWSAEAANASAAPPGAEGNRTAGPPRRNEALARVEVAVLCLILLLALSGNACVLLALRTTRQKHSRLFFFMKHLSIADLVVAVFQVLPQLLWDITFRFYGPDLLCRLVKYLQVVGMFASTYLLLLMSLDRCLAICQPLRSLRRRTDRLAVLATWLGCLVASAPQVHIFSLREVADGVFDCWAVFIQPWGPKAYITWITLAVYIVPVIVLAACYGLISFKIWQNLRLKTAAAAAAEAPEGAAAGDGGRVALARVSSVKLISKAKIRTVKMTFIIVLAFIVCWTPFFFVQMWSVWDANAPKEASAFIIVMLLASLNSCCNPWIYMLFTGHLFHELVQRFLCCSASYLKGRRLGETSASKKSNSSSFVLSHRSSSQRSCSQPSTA

[32] = molecular target: T5, Protein RecA (Mycobacterium tuberculosis, UniProt P9WHJ3); test: Fluorescence Cell-Free Homogeneous Dose Retest to Identify Inhibitors of RecA-Intein Splicing Activity. [Related pubchem assays (depositor defined):AID2097, AID2223, AID489010, AID492950]; type: functional
T5 sequence (P9WHJ3 whole entry): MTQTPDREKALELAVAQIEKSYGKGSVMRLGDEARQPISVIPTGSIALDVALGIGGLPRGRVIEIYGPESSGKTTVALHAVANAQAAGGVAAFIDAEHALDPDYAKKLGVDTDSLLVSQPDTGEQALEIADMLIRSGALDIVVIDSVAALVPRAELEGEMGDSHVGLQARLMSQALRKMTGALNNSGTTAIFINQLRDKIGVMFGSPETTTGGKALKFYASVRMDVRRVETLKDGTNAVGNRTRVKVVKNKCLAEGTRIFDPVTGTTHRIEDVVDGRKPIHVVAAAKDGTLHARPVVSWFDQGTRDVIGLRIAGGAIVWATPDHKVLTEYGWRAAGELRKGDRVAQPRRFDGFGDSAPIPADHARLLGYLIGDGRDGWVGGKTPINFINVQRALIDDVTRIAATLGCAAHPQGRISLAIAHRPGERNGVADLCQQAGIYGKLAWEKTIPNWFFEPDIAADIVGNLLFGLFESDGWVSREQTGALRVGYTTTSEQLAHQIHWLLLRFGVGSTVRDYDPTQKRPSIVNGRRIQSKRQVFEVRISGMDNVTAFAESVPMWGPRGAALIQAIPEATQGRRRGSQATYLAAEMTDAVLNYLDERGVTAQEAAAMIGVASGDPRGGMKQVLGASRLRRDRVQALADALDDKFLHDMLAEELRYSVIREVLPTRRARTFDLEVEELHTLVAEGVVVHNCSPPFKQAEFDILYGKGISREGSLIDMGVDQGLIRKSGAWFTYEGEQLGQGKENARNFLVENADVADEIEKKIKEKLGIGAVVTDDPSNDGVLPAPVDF

Cc1c(N2C(=O)c3ccc4c5c(ccc(c35)C2=O)CC4)c(=O)n(-c2ccccc2)n1C
IC50 [1]: > 39.8 µM (not active) | IC50 [2]: > 39.8 µM (not active) | IC50 [3]: 2.27 µM (active) | IC50 [4]: > 49.8 µM (not active) | IC50 [5]: 5.83 µM (active) | IC50 [6]: 15.7 µM (active)

COc1cnc(-c2ccccn2)nc1Sc1ccccc1
IC50 [7]: > 67 µM (not active) | IC50 [8]: 7.03 µM (active) | EC50 [9]: 2.47 µM (active) | EC50 [10]: > 60 µM (not active)

CCCCCCCCCCCCCCCC[N+](C)(C)CC
CC50 [11]: 32.7 µM (active) | AC50 [12]: 8.98 µM (active) | CC50 [13]: 34.8 µM (active) | EC50 [14]: 8.57 µM (active) | EC50 [15]: 1.3 µM (active) | IC50 [16]: 0.004 µM (active) | IC50 [17]: 0.409 µM (active) | IC50 [18]: 1.24 µM (active) | AC50 [19]: 4.56 µM (active) | EC50 [20]: > 3.32 µM (active) | IC50 [21]: 3.16 µM (active) | IC50 [22]: 0.931 µM (active) | IC50 [23]: > 40 µM (inactive) | IC50 [24]: 0.0372 µM (active) | IC50 [25]: 2.68 µM (active) | AC50 [26]: 2.97 µM (active) | IC50 [27]: 0.74 µM (active) | AC50 [28]: 1.16 µM (active) | IC50 [29]: 11.7 µM (inactive) | EC50 [30]: 23.2 µM (inconclusive) | EC50 [31]: > 29.9 µM (not active) | EC50 [32]: 13.2 µM (active)
